# Reference: the supplement of paper PMC10307832
# Columns and labels:
# Assay in all cases: relative viability (nuclei count vs DMSO), 5 days (fraction); higher = more cells survive
# A-427 = system: A-427
# Procedure, shortened: (§1)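 Relative viability divides the nuclei count in treated wells by that in vehicle wells. Lung cancer cell lines were seeded in 1536-well plates, dosed by pin tool the next day, and fixed and stained after 5 days in one step with final 0.05% Triton X-100, 1% formaldehyde and 1 ug/ml Hoechst. Dosing was a single drug or a fixed anchor-drug dose plus five library-drug doses (not always all listed) in √10 steps, and values are medians of duplicate plates imaged at 4×.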
# CAL-12T = system: CAL-12T
# Procedure, shortened: as §1
# COR-L 105 = system: COR-L 105
# Procedure, shortened: as §1
# EMC-BAC-2 = system: EMC-BAC-2
# Procedure, shortened: as §1
# HARA = system: HARA
# Procedure, shortened: as §1
# HCC-366 = system: HCC-366
# Procedure, shortened: as §1
# HCC-827 = system: HCC-827
# Procedure, shortened: as §1
# HOP-62 = system: HOP-62
# Procedure, shortened: as §1
# LCLC-103H = system: LCLC-103H
# Procedure, shortened: as §1
# NCI-H1395 = system: NCI-H1395
# Procedure, shortened: as §1
# NCI-H1437 = system: NCI-H1437
# Procedure, shortened: as §1
# NCI-H1755 = system: NCI-H1755
# Procedure, shortened: as §1
# NCI-H1792 = system: NCI-H1792
# Procedure, shortened: as §1
# NCI-H1915 = system: NCI-H1915
# Procedure, shortened: as §1
# NCI-H2009 = system: NCI-H2009
# Procedure, shortened: as §1
# NCI-H2228 = system: NCI-H2228
# Procedure, shortened: as §1
# NCI-H23 = system: NCI-H23
# Procedure, shortened: as §1
# NCI-H460 = system: NCI-H460
# Procedure, shortened: as §1
# NCI-H522 = system: NCI-H522
# Procedure, shortened: as §1
# NCI-H727 = system: NCI-H727
# Procedure, shortened: as §1
# SK-LU-1 = system: SK-LU-1
# Procedure, shortened: as §1
# SW 1573 = system: SW 1573
# Procedure, shortened: as §1
compound,measurement,setting,value
Cc1sc2c(c1C)C(c1ccc(Cl)cc1)=N[C@@H](CC(=O)OC(C)(C)C)c1nnc(C)n1-2 [JQ1] + N=C(N)NC(=N)NCCc1ccccc1 [Phenformin] (partner 250 µM),relative viability,A-427; first compound 0.04 µM,0.315
same,relative viability,A-427; first compound 0.1265 µM,0.241
same,relative viability,A-427; first compound 0.4 µM,0.341
same,relative viability,A-427; first compound 1.265 µM,0.276
same,relative viability,A-427; first compound 4 µM,0.228
same,relative viability,CAL-12T; first compound 0.04 µM,0.522
same,relative viability,CAL-12T; first compound 0.1265 µM,0.443
same,relative viability,CAL-12T; first compound 0.4 µM,0.42
same,relative viability,CAL-12T; first compound 1.265 µM,0.253
same,relative viability,CAL-12T; first compound 4 µM,0.284
same,relative viability,COR-L 105; first compound 0.04 µM,0.432
same,relative viability,COR-L 105; first compound 0.1265 µM,0.239
same,relative viability,COR-L 105; first compound 0.4 µM,0.217
same,relative viability,COR-L 105; first compound 1.265 µM,0.22
same,relative viability,COR-L 105; first compound 4 µM,0.289
same,relative viability,EMC-BAC-2; first compound 0.04 µM,0.551
same,relative viability,EMC-BAC-2; first compound 0.1265 µM,0.326
same,relative viability,EMC-BAC-2; first compound 0.4 µM,0.454
same,relative viability,EMC-BAC-2; first compound 1.265 µM,0.267
same,relative viability,EMC-BAC-2; first compound 4 µM,0.264
same,relative viability,HARA; first compound 0.04 µM,0.465
same,relative viability,HARA; first compound 0.1265 µM,0.236
same,relative viability,HARA; first compound 0.4 µM,0.484
same,relative viability,HARA; first compound 1.265 µM,0.173
same,relative viability,HARA; first compound 4 µM,0.186
same,relative viability,HCC-366; first compound 0.04 µM,0.699
same,relative viability,HCC-366; first compound 0.4 µM,0.614
same,relative viability,HCC-366; first compound 1.265 µM,0.412
same,relative viability,HCC-366; first compound 4 µM,0.376
same,relative viability,HCC-827; first compound 0.04 µM,0.395
same,relative viability,HCC-827; first compound 0.4 µM,0.349
same,relative viability,HCC-827; first compound 1.265 µM,0.468
same,relative viability,HCC-827; first compound 4 µM,0.449
same,relative viability,HOP-62; first compound 0.04 µM,0.633
same,relative viability,HOP-62; first compound 0.1265 µM,0.547
same,relative viability,HOP-62; first compound 0.4 µM,0.622
same,relative viability,HOP-62; first compound 1.265 µM,0.182
same,relative viability,HOP-62; first compound 4 µM,0.102
same,relative viability,LCLC-103H; first compound 0.04 µM,0.345
same,relative viability,LCLC-103H; first compound 0.1265 µM,0.308
same,relative viability,LCLC-103H; first compound 0.4 µM,0.371
same,relative viability,LCLC-103H; first compound 1.265 µM,0.268
same,relative viability,LCLC-103H; first compound 4 µM,0.28
same,relative viability,NCI-H1395; first compound 0.04 µM,0.439
same,relative viability,NCI-H1395; first compound 0.1265 µM,0.417
same,relative viability,NCI-H1395; first compound 0.4 µM,0.478
same,relative viability,NCI-H1395; first compound 1.265 µM,0.455
same,relative viability,NCI-H1395; first compound 4 µM,0.396
same,relative viability,NCI-H1437; first compound 0.04 µM,0.274
same,relative viability,NCI-H1437; first compound 0.1265 µM,0.267
same,relative viability,NCI-H1437; first compound 0.4 µM,0.279
same,relative viability,NCI-H1437; first compound 1.265 µM,0.222
same,relative viability,NCI-H1437; first compound 4 µM,0.271
same,relative viability,NCI-H1755; first compound 0.04 µM,0.687
same,relative viability,NCI-H1755; first compound 0.1265 µM,0.501
same,relative viability,NCI-H1755; first compound 0.4 µM,0.506
same,relative viability,NCI-H1755; first compound 1.265 µM,0.462
same,relative viability,NCI-H1755; first compound 4 µM,0.419
same,relative viability,NCI-H1792; first compound 0.04 µM,0.323
same,relative viability,NCI-H1792; first compound 0.1265 µM,0.19
same,relative viability,NCI-H1792; first compound 0.4 µM,0.232
same,relative viability,NCI-H1792; first compound 1.265 µM,0.106
same,relative viability,NCI-H1792; first compound 4 µM,0.0948
same,relative viability,NCI-H1915; first compound 0.04 µM,0.347
same,relative viability,NCI-H1915; first compound 0.1265 µM,0.334
same,relative viability,NCI-H1915; first compound 0.4 µM,0.329
same,relative viability,NCI-H1915; first compound 1.265 µM,0.212
same,relative viability,NCI-H1915; first compound 4 µM,0.177
same,relative viability,NCI-H2009; first compound 0.04 µM,0.477
same,relative viability,NCI-H2009; first compound 0.1265 µM,0.339
same,relative viability,NCI-H2009; first compound 0.4 µM,0.291
same,relative viability,NCI-H2009; first compound 1.265 µM,0.205
same,relative viability,NCI-H2009; first compound 4 µM,0.223
same,relative viability,NCI-H2228; first compound 0.04 µM,0.305
same,relative viability,NCI-H2228; first compound 0.1265 µM,0.275
same,relative viability,NCI-H2228; first compound 0.4 µM,0.297
same,relative viability,NCI-H2228; first compound 1.265 µM,0.181
same,relative viability,NCI-H2228; first compound 4 µM,0.207
same,relative viability,NCI-H23; first compound 0.04 µM,0.749
same,relative viability,NCI-H23; first compound 0.1265 µM,0.768
same,relative viability,NCI-H23; first compound 0.4 µM,0.812
same,relative viability,NCI-H23; first compound 1.265 µM,0.414
same,relative viability,NCI-H23; first compound 4 µM,0.592
same,relative viability,NCI-H460; first compound 0.04 µM,0.503
same,relative viability,NCI-H460; first compound 0.1265 µM,0.271
same,relative viability,NCI-H460; first compound 0.4 µM,0.123
same,relative viability,NCI-H460; first compound 1.265 µM,0.0422
same,relative viability,NCI-H460; first compound 4 µM,0.041
same,relative viability,NCI-H522; first compound 0.04 µM,0.656
same,relative viability,NCI-H522; first compound 0.1265 µM,0.615
same,relative viability,NCI-H522; first compound 0.4 µM,0.55
same,relative viability,NCI-H522; first compound 1.265 µM,0.519
same,relative viability,NCI-H522; first compound 4 µM,0.323
same,relative viability,NCI-H727; first compound 0.04 µM,0.458
same,relative viability,NCI-H727; first compound 0.1265 µM,0.282
same,relative viability,NCI-H727; first compound 0.4 µM,0.368
same,relative viability,NCI-H727; first compound 1.265 µM,0.393
same,relative viability,NCI-H727; first compound 4 µM,0.343
same,relative viability,SK-LU-1; first compound 0.04 µM,0.607
same,relative viability,SK-LU-1; first compound 0.1265 µM,0.386
same,relative viability,SK-LU-1; first compound 0.4 µM,0.458
same,relative viability,SK-LU-1; first compound 1.265 µM,0.171
same,relative viability,SK-LU-1; first compound 4 µM,0.136
same,relative viability,SW 1573; first compound 0.04 µM,0.331
same,relative viability,SW 1573; first compound 0.1265 µM,0.304
same,relative viability,SW 1573; first compound 0.4 µM,0.402
same,relative viability,SW 1573; first compound 1.265 µM,0.231
same,relative viability,SW 1573; first compound 4 µM,0.233
